This passage reports GI50 and TGI results from PubChem BioAssay (NCI).

Some test systems named below: SK-MEL-2 melanoma; SK-OV-3 ovarian; NCI-H522 lung; OVCAR-5 ovarian; LOX IMVI melanoma; NCI/ADR-RES ovarian; MCF7 breast; SW-620 colon; RPMI-8226 leukemia.
Common to all, as to assay: inhibition of tumour cell growth, NCI panel, 48 h

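These data come from cells grown in 96-well plates and exposed to compound for 48 hours at five concentrations. The concentration for 50% growth inhibition is given as GI50. TGI: concentration producing complete growth inhibition.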

With `COc1ccc(-n2c3c(c4c(CN5CCOCC5)c(O)ccc42)CCc2ccccc2C3=O)cc1`, the GI50 was above 100 µM with SK-MEL-2 melanoma; above 100 µM in the assay with SK-OV-3 ovarian; 7.28 µM in the assay on NCI-H522 lung; 34.8 µM in the assay on OVCAR-5 ovarian; 67.3 µM in the assay on LOX IMVI melanoma; 25 µM in the assay on NCI/ADR-RES ovarian. The GI50 in the assay on MCF7 breast was above 100 µM; in the assay with SW-620 colon, 82.2 µM; in the assay on RPMI-8226 leukemia, 24.4 µM. The TGI in the assay with SK-MEL-2 melanoma was above 100 µM; in the assay on SK-OV-3 ovarian it was above 100 µM; with NCI-H522 lung it was 63.2 µM; in the assay on OVCAR-5 ovarian it was above 100 µM; with LOX IMVI melanoma, above 100 µM; in the assay on NCI/ADR-RES ovarian, 88.9 µM. For the same molecule, the TGI with MCF7 breast, in the assay on SW-620 colon and in the assay with RPMI-8226 leukemia was above 100 µM each time.

Take `CSc1ccc2c3c(n(C[C@H](O)CO)c(=O)c2c1)-c1ccccc1C3=O`: the GI50 with SK-MEL-2 melanoma was 16.6 µM; in the assay on SK-OV-3 ovarian it was 6.06 µM; with NCI-H522 lung it was 2 µM; with OVCAR-5 ovarian, 3.1 µM; with NCI/ADR-RES ovarian it was 4.44 µM; with MCF7 breast, 0.423 µM. The results for the GI50 in the assay on SW-620 colon and in the assay with RPMI-8226 leukemia were 0.978 µM and 1.62 µM, respectively. Also, the TGI turned out to be 60.8 µM in the assay on SK-MEL-2 melanoma; 34.2 µM in the assay with SK-OV-3 ovarian; 25.5 µM in the assay with NCI-H522 lung; 10.6 µM in the assay with OVCAR-5 ovarian; 49.9 µM in the assay with NCI/ADR-RES ovarian; 11 µM in the assay with MCF7 breast. The TGI in the assay with SW-620 colon turned out to be 43.6 µM; with RPMI-8226 leukemia it was 4.86 µM.

In the case of `CCOC(=O)C(=Cc1ccc(C(=O)OC)cc1)C(=O)OCC`, the TGI in the assay on SK-MEL-2 melanoma was 3.37 µM; with SK-OV-3 ovarian it was 26.4 µM; in the assay on NCI-H522 lung, 2.8 µM; with OVCAR-5 ovarian, 21.9 µM; with LOX IMVI melanoma it was 3.55 µM; in the assay with SW-620 colon it was 6.11 µM. For the same molecule, the TGI in the assay on RPMI-8226 leukemia was 4.73 µM.

Take `COc1ccccc1C#Cc1ccccc1C#CCCCCCC#Cc1ccccc1C#Cc1ccccc1OC`: the GI50 is above 100 µM in the assay with SK-MEL-2 melanoma; above 100 µM in the assay with SK-OV-3 ovarian; 40.3 µM in the assay with NCI-H522 lung; above 100 µM in the assay on OVCAR-5 ovarian; 98.1 µM in the assay on LOX IMVI melanoma; 78.6 µM in the assay on NCI/ADR-RES ovarian. Moreover, the results for the GI50 in the assay with MCF7 breast, with SW-620 colon and with RPMI-8226 leukemia were 17.3 µM, above 100 µM and 29 µM, respectively. Further, the TGI in the assay with SK-MEL-2 melanoma, with SK-OV-3 ovarian, with NCI-H522 lung, in the assay on OVCAR-5 ovarian, in the assay on LOX IMVI melanoma and with NCI/ADR-RES ovarian was above 100 µM each time. Moreover, the TGI in the assay with MCF7 breast, in the assay on SW-620 colon and with RPMI-8226 leukemia was above 100 µM throughout.

For `C=CC1CC12C(=O)C1OC2(C)C2C(=O)c3c(O)ccc(O)c3C(=O)C12` (configuration not stated), the GI50 in the assay with SK-MEL-2 melanoma was 14.5 µM; in the assay on SK-OV-3 ovarian it was 11.9 µM; in the assay on NCI-H522 lung, 6.23 µM; in the assay with OVCAR-5 ovarian it was 5.69 µM; in the assay with LOX IMVI melanoma, 2.35 µM; in the assay on NCI/ADR-RES ovarian, 3.76 µM. The GI50 was 2.2 µM in the assay on MCF7 breast, 2.32 µM in the assay with SW-620 colon and 0.423 µM in the assay on RPMI-8226 leukemia. For the same molecule, the TGI is above 100 µM with SK-MEL-2 melanoma; 41.2 µM with SK-OV-3 ovarian; 16.8 µM in the assay on NCI-H522 lung; 12 µM with OVCAR-5 ovarian; 10.6 µM in the assay with LOX IMVI melanoma; 12.1 µM in the assay on NCI/ADR-RES ovarian. The TGI was determined as 8.38 µM in the assay on MCF7 breast and 5.88 µM with SW-620 colon.

In the case of `CCN1c2ccccc2C(Cl)(c2ccc(N(C)C)cc2)c2ccccc21`, the GI50 with SK-OV-3 ovarian is 4.97 µM; in the assay with OVCAR-5 ovarian, 17.7 µM; in the assay on LOX IMVI melanoma it was 3.67 µM; in the assay on NCI/ADR-RES ovarian, 13.3 µM; in the assay with MCF7 breast, 10.3 µM; in the assay on SW-620 colon, 2.9 µM. Besides, the GI50 in the assay on RPMI-8226 leukemia was 1.07 µM. Besides, the TGI in the assay on SK-OV-3 ovarian turned out to be 18.2 µM; in the assay on OVCAR-5 ovarian it was 34.9 µM; in the assay on LOX IMVI melanoma it was 13.6 µM; in the assay with NCI/ADR-RES ovarian it was 44.6 µM; with MCF7 breast it was 30.5 µM; in the assay on SW-620 colon, 12.1 µM. The molecule further had a TGI in the assay on RPMI-8226 leukemia of 4.04 µM.

For `COc1ccccc1NC(=O)C1=C(C)NC(C)=C(C(=O)Nc2ccccc2OC)C1c1ccc(C)cc1`, the TGI in the assay on SK-MEL-2 melanoma, in the assay with SK-OV-3 ovarian, in the assay with NCI-H522 lung, with OVCAR-5 ovarian, in the assay on LOX IMVI melanoma and in the assay on SW-620 colon was above 100 µM in each case. This molecule also gave a TGI with RPMI-8226 leukemia above 100 µM.

Regarding `O=Nc1ccc2ccccc2c1O`, the GI50 in the assay on SK-MEL-2 melanoma was 2.34 µM; with SK-OV-3 ovarian it was 19.9 µM; in the assay with NCI-H522 lung, 1.78 µM; with OVCAR-5 ovarian, 14.1 µM; in the assay with LOX IMVI melanoma it was 1.68 µM; in the assay on NCI/ADR-RES ovarian it was 2.62 µM. In addition, the GI50 in the assay with MCF7 breast was 3.17 µM; with SW-620 colon, 2.88 µM; in the assay on RPMI-8226 leukemia it was 5.69 µM. For the same molecule, the TGI in the assay on SK-MEL-2 melanoma was found to be 5.29 µM; in the assay with SK-OV-3 ovarian, 45.5 µM; in the assay on NCI-H522 lung it was 4.17 µM; in the assay on OVCAR-5 ovarian, 30.4 µM; in the assay with LOX IMVI melanoma, 5.71 µM; with NCI/ADR-RES ovarian, 8.22 µM. For the same molecule, the TGI with MCF7 breast amounted to 12.5 µM; in the assay on SW-620 colon it was 10.5 µM; in the assay on RPMI-8226 leukemia it was 31.1 µM.

`COc1cccc(Cc2c3cc(OC)ccc3cc[n+]2C)c1`: the TGI was above 100 µM in the assay on SK-MEL-2 melanoma; 92.3 µM with NCI-H522 lung; above 100 µM in the assay on OVCAR-5 ovarian; above 100 µM in the assay with SW-620 colon; above 100 µM in the assay with RPMI-8226 leukemia.

As for `CC(=O)OC1(C)C(=O)OC1(C)C(C)=O` (configuration not stated), the TGI in the assay with SK-MEL-2 melanoma, in the assay on SK-OV-3 ovarian, in the assay on NCI-H522 lung, with OVCAR-5 ovarian, with LOX IMVI melanoma and in the assay on SW-620 colon was above 100 µM in each case. In the assay on RPMI-8226 leukemia, the TGI was above 100 µM.

Turning to `CC1=CCC23C(C1)OC(Br)(C=CC2(C)O)C3(C)C` (configuration not stated), the TGI in the assay on SK-MEL-2 melanoma, in the assay on OVCAR-5 ovarian, in the assay with LOX IMVI melanoma and in the assay with SW-620 colon was above 100 µM in each case.

Consider `O=C(CC(=O)N1N=C(N2c3ccccc3Sc3ccccc32)CC1c1ccccc1)Nc1ccc(Cl)cc1` (configuration not stated), for which the TGI in the assay with SK-OV-3 ovarian, with OVCAR-5 ovarian, in the assay with LOX IMVI melanoma and with SW-620 colon was above 100 µM throughout.

In the case of `O=C1c2c(n(Cc3ccccc3)c(=O)n2Cc2ccccc2)C(=O)N1Cc1ccccc1`, the TGI with SK-MEL-2 melanoma, with SK-OV-3 ovarian, in the assay with NCI-H522 lung, with OVCAR-5 ovarian, in the assay with LOX IMVI melanoma and with SW-620 colon was above 100 µM in each case. The molecule also came in with a TGI in the assay on RPMI-8226 leukemia above 100 µM.
